Data published in patent US11739326B2, “RUNX1 inhibition for treatment of proliferative vitreoretinopathy and conditions associated with epithelial to mesenchymal transition” (The Schepens Eye Research Institute, Inc., priority 2017, dated 2023).
“Also recorded” adds a separate entry of the source.

Tests used:
[1] = system: C-PVR cells; experiment: Ki67 staining of C-PVR cells (cell number and proliferative capacity); assay type: cell-based, human; settings: Ro5-3335 150 μM, 48 hours, vs vehicle
Experimental: C-PVR (e.g., case 5) cells were transfected with the siRUNX1 or siScramble for 48 hours and washed and fixed with 4% paraformaldehyde for 10 minutes at room temperature. The cells were washed with PBS and blocked for an hour in (10% goat serum in PBS) incubated with rabbit anti-Ki67 antibody (1:50; Novus Biologicals) overnight at 4 degrees. Cells were incubated with secondary antibody goat anti-rabbit 594 (1:300; Life Technologies) for 2 hours along with DAPI, then were washed and imaged (FIG. 7A-7I; quantitation depicted in FIG. 8).
C-PVR cells (e.g., case 5) were cultured in 48 well plates for 24, followed by treatment with 150 μM RUNX1 inhibitor (Ro5-3335, Calbiochem), or vehicle only for a period of 48 hours. The cells were washed and fixed with 4% paraformaldehyde for 10 minutes at room temperature. The cells were washed with PBS and blocked for an hour in (10% goat serum in PBS) incubated with rabbit anti-Ki67 antibody (1:50; Novus Biologicals) overnight at 4 degrees. Cells were incubated with secondary antibody goat anti-rabbit 594 (1:300; Life Technologies) for 2 hours along with DAPI, washed, imaged and quantified using Image J (FIGS. 9A and 9B).
C-PVR cells (e.g., case 5) were cultured in 48 well plates for 24, followed by treatment with 150 μM RUNX1 inhibitor (Ro5-3335, Calbiochem), or vehicle only for a period of 48 hours. […]

[2] = system: human PVR membranes; experiment: Human PVR membrane explant model in Matrigel; assay type: cell-based; settings: Ro5-3335 150 μM, combination with methotrexate 400 μM; for growth of human PVR membranes in explant model: vs control (DMSO)
Experimental: (§1) PVR membranes were freshly obtained from patients and placed in growth factor-reduced Matrigel (BD Biosciences) seeded in 24 well plates. 30 μl of matrigel were used to coat the bottom of 24 well plates without touching the edges of the well. After seeding the PVR membrane, explant plates were incubated in a 37° C. cell incubator without medium for 10 minutes in order for the Matrigel to solidify. 500 μl of medium was added to each well and incubated at 37° C. with 5% CO2. The explants were treated with RUNX1 inhibitor (Ro5-3335). Phase contrast photos of individual explants were taken daily.
as §1, with “from patients,” for “from patients and”, “(BD Biosciences), and” for “(BD Biosciences)”, “matrigel was” for “matrigel were”, “After seeding,” for “After seeding”, “PVR membrane” for “PVR membrane,”, “inhibitor (Ro5-3335) or a combination of Ro5-3335 and methotrexate.” for “inhibitor (Ro5-3335).”

[3] = system: ARPE-19 cells; experiment: Growth factor-induced EMT in ARPE-19 cells (morphology, marker immunofluorescence); assay type: cell-based; settings: TGFβ2, TNFα
Experimental: ARPE-19 cells were grown to confluence and maintained in 1% serum for 7-10 days (FIG. 22). Cells were treated with growth factors TGFβ2, TNFα and IL-6 (10 ng/ml each) for 3 days, with 150 μM RUNX1 inhibitor (Ro5-3335, Calbiochem) or without (e.g., vehicle). […] EMT was determined by morphological changes including cell shape.
Furthermore, treatment with RUNX1 small molecule inhibitor, Ro5-335, in ARPE-19 cells prevented EMT. This was assessed by the reduction in the epithelial marker, cytokeratin, and an increase in the mesenchymal markers such as fibronectin, and smooth muscle actin (FIGS. 23A and 23B). ARPE-19 cells were grown to confluence and maintained in 1% for 7-10 days. Cells were treated with TGFβ2, TNFα, and a combination of TGFβ2, TNFα and IL-6 (10 ng/ml each) for 3 days with or without 150 uM RUNX1 inhibitor (Ro5-3335, Calbiochem) or vehicle. Cells were washed and fixed with 4% paraformaldehyde for 10 minutes at room temperature. Cells were incubated with primary antibodies, mouse anti-cytokeratin (1:250; Abcam), or rabbit anti-fibronectin (1:500, Sigma) or smooth muscle actin (1:50; DAKO) overnight at 4° C. […]
ARPE-19 cells were grown to 60-70% confluence. […] EMT was determined by morphological changes (e.g., cell shape).

[4] = system: ARPE-19 cells; experiment: CyQuant cell proliferation assay in ARPE-19 cells; assay type: cell-based; settings: for percent live cells: Ro5-3335 100, 50, 25 μM, methotrexate 400, 100, 10 μM, alone or in combination vs vehicle
Experimental: (§2) ARPE 19 cells were cultured in 96 well plates for 8 hours, followed by treatment with RUNX1 inhibitor (Ro5-3335, Calbiochem) or Methotrexate (Sigma) in growth media or vehicle only for a period of 24 or 48 hours. The cells were washed and the CyQuant Direct nucleic acid stain was added and incubated at 37° C. in the incubator. Fluorescence read outs were measured at wavelengths as instructed in the protocol.

[5] = system: C-PVR cells; experiment: CyQuant cell proliferation assay in C-PVR cells; assay type: cell-based, human; settings: for percent live cells: C-PVR, Ro5-3335 100, 50, 25 μM, methotrexate 400, 100, 10 μM, alone or in combination vs vehicle
[6] = system: C-PVR cells; experiment: CyQuant cell proliferation assay in C-PVR cells; assay type: cell-based, human; settings: for proliferation / percent live cells of C-PVR cells: 72 hours, vs vehicle
Experimental: as §2
A CyQuant Cell Proliferation Assay was performed 48 and 72 hours post-treatment, with lenalidomide at 40 nM, and 80 nM. […] C-PVR cells were cultured in 96 well plates for 8 hours, followed by treatment with lenalidomide (Sigma-Aldrich) in growth media or vehicle only for a period of 48 or 72 hours. The cells were washed, and CyQuant Direct and nucleic acid stain was added and incubated at 37° C. Fluorescence read outs were measured at wavelengths as instructed in the protocol.

| Structure (SMILES) | cell number and proliferative capacity of C-PVR cells (Ki67 staining) [1] | cell number and proliferative capacity of C-PVR cells (Ki67 staining) ([1]; listed as Ro5-335) | detachment of the branches from the primary tissue in human PVR explants [2] | branching, regression of branches and apoptosis in human PVR explants ([2]; vs DMSO) | growth of human PVR membranes in explant model [2] | growth of human PVR membranes in explant model ([2]; listed as Ro5-335) | EMT determined by morphological changes including cell shape ([3]; IL-6 (10 ng/ml each) 3 days, Ro5-3335 150 μM vs vehicle) | EMT assessed by cytokeratin, fibronectin and smooth muscle actin immunofluorescence ([3]; combination with IL-6 (10 ng/mL each) 3 days, Ro5-3335 150 uM) | efficacy at inhibiting growth of ARPE-19 cells compared to methotrexate ([4]; 24 or 48 hours) | percent live cells ([4]; ARPE-19, 24 hours) | percent live cells ([4]; ARPE-19, 48 hours) | efficacy at inhibiting growth of C-PVR cells compared to methotrexate ([5]; 24 or 48 hours) | percent live cells ([5]; 24 hours) | percent live cells ([5]; 48 hours) | proliferation of C-PVR cells ([6]; 40 nM, 48 hours) | proliferation / percent live cells of C-PVR cells ([6]; 40 nM) | proliferation of C-PVR cells ([6]; 80 nM, 48 hours) | proliferation / percent live cells of C-PVR cells ([6]; 80 nM) | proliferation of C-PVR cells ([6]; 40 and 80 nM, 48 and 72 hours (summary statement)) | proliferation of C-PVR cells ([6]; 40 and 80 nM, 48 and 72 hours (summary statement), listed as Lenlidomide) |
| --- | --- | --- | --- | --- | --- | --- | --- | --- | --- | --- | --- | --- | --- | --- | --- | --- | --- | --- | --- | --- |
| O=C1CN=C(c2ccc[nH]2)c2cc(Cl)ccc2N1 [Ro5-3335] | significant reduction in the cell number and proliferative capacity | significant reduction in the cell number and proliferative capacity | Detachment of the branches from the primary tissue was also observed | apoptosis, less branching and a faster regression of the branches; also recorded: Less branching, a faster regression of the branches and apoptosis | significant reduction of human PVR; also recorded: no growth after 4 days; also recorded: reduced growth of human PVR membranes | reduced the growth of human PVR membranes; also recorded: now growth after four days | either no or reduced EMT | prevented EMT | more efficacious at inhibiting growth of ARPE-19 cells; also recorded: more efficacious than treatment with methotrexate | significant reduction in percent live cells | significant reduction in percent live cells | more efficacious than treatment with methotrexate at inhibiting growth of C-PVR cells | significant reduction in percent live cells | significant reduction in percent live cells | – | – | – | – | – | – |
| Nc1cccc2c1CN(C1CCC(=O)NC1=O)C2=O (stereo not drawn) [lenalidomide, 3-(7-amino-3-oxo-1H-isoindol-2-yl)piperidine-2,6-dione] | – | – | – | – | – | – | – | – | – | – | – | – | – | – | inhibited proliferation | significant reduction in percent live cells | inhibited proliferation | significant reduction in percent live cells | significantly reduced proliferation | inhibited proliferation |
| CN(Cc1cnc2nc(N)nc(N)c2n1)c1ccc(C(=O)N[C@@H](CCC(=O)O)C(=O)O)cc1 [methotrexate] | – | – | – | – | – | – | – | – | – | significant reduction in percent live cells | significant reduction in percent live cells | – | significant reduction in percent live cells | significant reduction in percent live cells | – | – | – | – | – | – |
